From ChEMBL document CHEMBL6103662, “Thiosulfonate-Based Targeted Covalent Cruzipain Inhibitors with Enhanced Bioactivity Translation for Antichagasic Therapy” (ACS Med Chem Lett, 2025)
pIC50: −log10 of the molar value. Calls of active or inactive are those of the source. The calls are words filed in the database; no cut-off is given here.

How the values were obtained:
[1] = target: Cruzipain (Trypanosoma cruzi) (UniProt P25779); assay: Inhibition of recombinant Trypanosoma cruzi Cruzain at 100 uM using Z-FR-AMC as substrate preincubated for 10 mins followed by substrate addition and measured at 5 secs interval for 10 mins by fluorimetry relative to control; settings: time 20.0 min
[2] = Cytotoxicity against African green monkey Vero cells assessed as cell viability at 50 uM measured after 96 hrs by Alamar blue assay relative to control; assay type: toxicity, cell-based; settings: chlorocebus sabaeus, read-out: Activity
[3] = target: Cruzipain (Trypanosoma cruzi) (UniProt P25779); assay: Inhibition of recombinant Trypanosoma cruzi Cruzain at 100 uM using Z-FR-AMC as substrate measured at 5 secs interval for 10 mins by fluorimetry relative to control
[4] = target: cathepsin L (Homo sapiens, UniProt P07711); assay: Inhibition of recombinant human cathepsin L at 100 uM using Z-FR-AMC as substrate preincubated for 10 mins followed by substrate addition and measured for 20 mins by fluorimetry relative to control; settings: probe Z-FR-AMC, time 30 min
[5] = target: Cruzipain (Trypanosoma cruzi, UniProt P25779); assay: Inhibition of recombinant Trypanosoma cruzi Cruzain using Z-FR-AMC as substrate preincubated for 10 mins followed by substrate addition and measured at 5 secs interval for 10 mins by fluorimetry
[6] = system: Trypanosoma cruzi; assay: Antitrypanosomal activity against Trypanosoma cruzi Tulahuen trypomastigotes expressing Escherichia coli beta-galactosidase infected in Vero cells at 10 uM measured after 72 hrs by beta-galactosidase based assay relative to control; assay type: functional
[7] = target: Cruzipain (Trypanosoma cruzi) (UniProt P25779); assay: Reversible inhibition of recombinant Trypanosoma cruzi Cruzain assessed as recovery of enzyme activity at 10 x IC50 using Z-FR-AMC as substrate preincubated for 30 mins followed by 100-fold dilution with assay buffer containing substrate and measured after 15 to 120 mins by fluorescence based jump dilution assay; settings: time 150.0 min
[8] = system: Trypanosoma cruzi; assay: Antitrypanosomal activity against Trypanosoma cruzi Tulahuen trypomastigotes expressing Escherichia coli beta-galactosidase infected in Vero cells measured after 72 hrs by beta-galactosidase based assay; assay type: functional, organism-based
[9] = system: Trypanosoma cruzi; assay: Antitrypanosomal activity against Trypanosoma cruzi Tulahuen trypomastigotes expressing Escherichia coli beta-galactosidase infected in Vero cells at 50 uM measured after 72 hrs by beta-galactosidase based assay relative to control; assay type: functional
[10] = system: Trypanosoma cruzi; assay: Antitrypanosomal activity against Trypanosoma cruzi Tulahuen trypomastigotes expressing Escherichia coli beta-galactosidase infected in Vero cells at 1 uM measured after 72 hrs by beta-galactosidase based assay relative to control; assay type: functional
[11] = system: Trypanosoma cruzi; assay: Trypanocidal activity against Trypanosoma cruzi; assay type: functional, organism-based
[12] = target: Cruzipain (Trypanosoma cruzi) (UniProt P25779); assay: Inhibition of recombinant Trypanosoma cruzi Cruzain at 10 x IC50 using Z-FR-AMC as substrate preincubated for 30 mins followed by 100-fold dilution with assay buffer containing substrate and measured up to 15 mins by fluorescence based jump dilution assay; settings: time 45.0 min

Chain of cathepsin L (P07711 whole entry): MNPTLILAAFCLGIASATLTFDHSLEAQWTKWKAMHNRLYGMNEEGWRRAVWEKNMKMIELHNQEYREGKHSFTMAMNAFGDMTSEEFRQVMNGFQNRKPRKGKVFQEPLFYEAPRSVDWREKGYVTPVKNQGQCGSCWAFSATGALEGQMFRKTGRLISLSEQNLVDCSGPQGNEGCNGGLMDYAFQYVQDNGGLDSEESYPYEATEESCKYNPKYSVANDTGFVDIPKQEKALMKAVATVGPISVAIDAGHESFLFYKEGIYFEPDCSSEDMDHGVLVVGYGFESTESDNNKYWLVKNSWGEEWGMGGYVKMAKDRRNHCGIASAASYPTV
Chain of Cruzipain (P25779 whole entry): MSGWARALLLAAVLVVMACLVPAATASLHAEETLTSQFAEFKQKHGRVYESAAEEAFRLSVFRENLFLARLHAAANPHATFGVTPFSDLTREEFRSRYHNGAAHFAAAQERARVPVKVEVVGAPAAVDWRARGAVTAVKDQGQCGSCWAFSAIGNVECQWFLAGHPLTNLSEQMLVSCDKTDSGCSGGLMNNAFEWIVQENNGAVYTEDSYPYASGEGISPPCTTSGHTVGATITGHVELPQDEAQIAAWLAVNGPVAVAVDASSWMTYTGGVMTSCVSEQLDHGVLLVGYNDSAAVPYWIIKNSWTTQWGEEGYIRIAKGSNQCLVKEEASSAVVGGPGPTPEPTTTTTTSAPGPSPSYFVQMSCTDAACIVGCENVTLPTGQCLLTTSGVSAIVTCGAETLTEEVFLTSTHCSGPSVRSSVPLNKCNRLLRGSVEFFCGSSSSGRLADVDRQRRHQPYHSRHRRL
Chain of Cruzipain (Trypanosoma cruzi) (P25779 123-467 limits assumed): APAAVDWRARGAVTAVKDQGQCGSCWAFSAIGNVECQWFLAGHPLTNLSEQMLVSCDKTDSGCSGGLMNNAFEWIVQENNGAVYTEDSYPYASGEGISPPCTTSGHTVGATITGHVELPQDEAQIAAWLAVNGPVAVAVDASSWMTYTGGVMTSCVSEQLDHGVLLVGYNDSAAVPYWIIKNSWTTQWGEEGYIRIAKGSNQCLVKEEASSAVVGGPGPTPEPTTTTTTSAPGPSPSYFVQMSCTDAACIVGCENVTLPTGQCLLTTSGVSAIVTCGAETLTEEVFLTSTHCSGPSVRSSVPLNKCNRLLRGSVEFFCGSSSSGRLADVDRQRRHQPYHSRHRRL

| inhibition [1] | inhibition [3] | pIC50 [5] | inhibition [7] | pIC50 [8] | inhibition [12] | SMILES | viability at 96 h, 50 µM [2] | inhibition at 20 min, 100 µM [4] | inhibition at 10 µM [6] | inhibition at 50 µM [9] | inhibition at 1 µM [10] | pIC50 [11] |
| --- | --- | --- | --- | --- | --- | --- | --- | --- | --- | --- | --- | --- |
| 90% |  | 5.01 |  |  |  | COC(=O)[C@H](CSS(=O)(=O)c1ccccc1)n1cc(C(NCc2ccc3c(c2)OCO3)C2CCCC2)nn1 (stereo partly drawn) | 53% | 23% | 88% | 98% | 2% |  |
| 83% | 55% | 4.92 |  |  |  | COC(=O)[C@H](CSS(=O)(=O)c1ccccc1)n1cc(C(NCc2ccc3c(c2)OCO3)C2CCCCC2)nn1 (stereo partly drawn) | 82% | 55% | 90% | 100% | 3% |  |
| 41% |  |  |  |  |  | O=C(O)[C@H](CSS(=O)(=O)c1ccccc1)n1cc(C(NCc2ccc3c(c2)OCO3)C2CCCCC2)nn1 (stereo partly drawn) |  |  |  |  |  |  |
| 76% |  | 4.60 |  |  |  | CCCCC(c1cn([C@@H](CSS(=O)(=O)c2ccccc2)C(=O)OCC)nn1)N1CCc2ccccc2C1 (stereo partly drawn) | 82% | 0% | 31% | 91.7% |  |  |
| 80% |  | 4.86 |  |  |  | CCOC(=O)[C@H](CSS(=O)(=O)c1ccccc1)n1cc(C(C2CCCCC2)N2CCc3ccccc3C2)nn1 (stereo partly drawn) | 87% | 8% | 77% | 91% | 0% |  |
| 28% |  |  |  |  |  | O=C(O)[C@H](CSS(=O)(=O)c1ccccc1)n1cc(C(C2CCCCC2)N2CCc3ccccc3C2)nn1 (stereo partly drawn) |  |  |  |  |  |  |

Continued, compound first:

| SMILES | inhibition [1] | inhibition [3] | pIC50 [5] | inhibition [7] | pIC50 [8] | inhibition [12] | viability at 96 h, 50 µM [2] | inhibition at 20 min, 100 µM [4] | inhibition at 10 µM [6] | inhibition at 50 µM [9] | inhibition at 1 µM [10] | pIC50 [11] |
| --- | --- | --- | --- | --- | --- | --- | --- | --- | --- | --- | --- | --- |
| CCC(CC)C(NCc1ccc2c(c1)OCO2)c1cn([C@@H](CSS(=O)(=O)c2ccccc2)C(=O)O)nn1 (stereo partly drawn) | 33% |  |  |  |  |  |  |  |  |  |  |  |
| CC(C)[C@H](CSS(=O)(=O)c1ccccc1)n1cc(C(NCc2ccc3c(c2)OCO3)C2CCCCC2)nn1 (stereo partly drawn) | 73% | 20% | 5.40 | Active | 5.11 |  | 75% | 0% | 93% | 100% |  |  |
| COc1ccc(COC(=O)[C@H](CSS(=O)(=O)c2ccccc2)n2cc(C(NCc3ccc4c(c3)OCO4)C3CCCCC3)nn2)cc1 (stereo partly drawn) | 50% | 7% |  |  |  |  | 97% | 16% |  | 5% |  |  |
| CCCCC(NCc1ccc2c(c1)OCO2)c1cn([C@@H](CSS(=O)(=O)c2ccccc2)C(=O)OCC)nn1 (stereo partly drawn) | 92% |  | 5.49 |  |  |  | 63% | 84% | 83% | 97% | 10.7% |  |
| CCOC(=O)[C@H](Cc1ccccc1)n1cc(C(NCc2ccc3c(c2)OCO3)C2CCCCC2)nn1 (stereo partly drawn) | 15% |  |  |  |  |  |  |  |  |  |  |  |
| O=C(Cn1ccnc1[N+](=O)[O-])NCc1ccccc1 [BENZNIDAZOLE] |  |  |  |  |  |  |  |  |  |  |  | 5.84 |
| O=S(=O)(SC[C@@H](Cc1ccccc1)n1cc(C(NCc2ccc3c(c2)OCO3)C2CCCCC2)nn1)c1ccccc1 (stereo partly drawn) | 86% | 39% | 5.66 | Active | 5.72 |  | 100% | 13% | 91% | 99.9% |  |  |
| CCOC(=O)[C@H](CSS(=O)(=O)c1ccccc1)n1cc(C(NCc2ccc3c(c2)OCO3)C2CCCCC2)nn1 (stereo partly drawn) | 92% | 39% | 5.57 | Active; Gradual Recovery Of Enzyme Activity Observed |  | Active; Showed Near-Zero Slope | 87% | 47% | 96% | 100% | 14% |  |
| O=C[C@H](Cc1ccccc1)n1cc(C(NCc2ccc3c(c2)OCO3)C2CCCCC2)nn1 (stereo partly drawn) | 64% |  | 4.39 |  |  |  |  |  |  | 10% |  |  |
| CCOC(=O)[C@H](CSS(=O)(=O)c1ccccc1)n1cc(C(NCc2ccc3c(c2)OCO3)C(CC)CC)nn1 (stereo partly drawn) | 56% |  | 4.62 |  |  |  | 70% | 2% | 91% | 97% | 0% |  |
